Experimental data as given in patent publication US5605929A, “Methods and compositions for inhibiting 5α-reductase activity” (priority 1995, dated 1997).
Where two headings read alike, the source gives them in different places.

Experiments:
[1] = molecular target: T1, α-Amylase of human saliva (Homo sapiens, UniProt P0DUB6); details: cited from earlier work
T1 construct: α-Amylase of human saliva; host or cells: human saliva

[2] = test system: Human prostate cancer PC-3 cells; assay: PC-3 tumor growth in nude mice; format: in vivo, nude mice (human tumor)
Procedure: Human prostate cancer PC-3 cells were grown in culture medium. About one million cells were injected into male nude mice and the growth of tumors were followed. Within two weeks, the tumor grew to about 100 mm^3. […] The 3 controls received water only.

[3] = test system: androgen-dependent organs; format: in vivo, rat
Procedure: The control rats were injected with 0.3 ml of 30% ethanol.

[4] = test system: prostate and preputial glands; assay: EGCG ip 7 days, normal and castrated rats with androgen; format: in vivo, rat; details: for prostate weight reduction: 5 mg/day
Procedure: Male Sprague-Dawley rats, 60±5 g body weight, were used. Rats were divided into 6 groups. Each group had 5 rats. Groups 1 and 2 were normal rats while the other 4 groups had rats castrated on the first day. […] The control rats (Group 1) received 0.1 ml of 30% ethanol.

[5] = molecular target: T2, HIV-1 reverse transcriptase (Human immunodeficiency virus type 1 group M subtype B, UniProt P04585); details: cited from earlier work
T2 construct: HIV-1 reverse transcriptase

[6] = test system: male accessory reproductive organs and preputial organs; assay: EGCG ip 7 days, male rats, body and organ weights; format: in vivo, rat
Procedure: Male Sprague-Dawley rats (body weight 180 g±10 g) were used. Each group had 5 rats. […] Rats in the control group received 0.1 ml 30% ethanol.

[7] = molecular target: rat small intestinal maltase; details: cited from earlier work
[8] = test system: human breast tumor cell line, MDF-7; assay: Human breast tumor growth in nude mice; format: in vivo; details: 1 mg/mouse/day, 2 weeks
Procedure: For breast tumor studies, human breast tumor cell line, MDF-7 (1 million cells) was injected into female nude mice. After 5 weeks, the tumor was over 1000 mm^3.

LNCaP = assay: cells; details: Homo sapiens, read-out: 5α-DHT formed (% of control)
[9] = test system: human liver microsomes 5α-reductase; details: vs rat liver microsomes
Procedure: Briefly, the binding assay solution, in a final volume of 0.15 ml, contained microsomes (2-20 μg of protein), 0.08 μCi of [^3 H]4-MA, 0.1 mM-NADPH, 1 mM-dithiothreitol and 50 mM-potassium phosphate, pH 7.0, with or without the indicated amount of a lipid or an inhibitor preparation. Lipids were dissolved in ethanol and added in 1-5 μl volumes. Control tubes received the same amount of ethanol. After incubation at 0° C. for 1 h, the [^3 H]4-MA bound to microsomes was determined by collecting microsomes on a Whatman GF/1F glass fibre filter and washing with 10 ml of 20 mM-potassium phosphate, pH 7.0, containing 0.01% CHAPS to remove unbound [^3 H]4-MA.
(§1) Microsomes were prepared at 4° C. from a buffered 0.32M-sucrose homogenate of human liver and from the livers of adult Sprague-Dawley female rats by differential centrifugation as described previously (Liang et al., 1990), and were used in the assay of 5α-reductase activity. In some experiments, microsomes were solubilized with 0.1% polyoxyethylene ether W-1 as described previously (Liang et al., 1990), except for the substitution of polyoxyethylene ether W-1 for Lubrol-WX.

[10] = test system: forehead sebum production; assay: Forehead sebum production (L/R ratio), human male; format: in vivo
Procedure: A volunteer was used to test and analyze sebum production from the forehead region. The forehead was washed thoroughly by soap twice and cleaned by 70% isopropyl alcohol twice. Sebum production was measured 30 to 60 minutes later by a sebum meter (Courage/Khazaka Electronic GmbH, Germany). The sebum meter tape probe (7 mm×8 mm) covered 56 mm^2 area in each measurement. Ten measurements were made within the 4 cm square area (16 cm^2) located at the middle of the left or right side forehead between the eyebrow and the hair line.
The sebum meter detected the difference in the transparency of the tape before and after the tape was placed on the forehead for 30 seconds and expressed the difference in an arbitrary number (S-value) between 0 to 300 (or higher). S-values of sebum accumulated on the foreheads of men are usually 200 to 300.

[11] = test system: flank organs, seminal vesicles, prostate and other organs
[12] = test system: Human Prostatic Cancer Cells; assay: Cell morphology during 2 hour incubation; format: cell-based
[13] = test system: UDP-glucuronic acid:5α-DHT glucuronosyl transferase; details: 10 to 40 μM
microsomal 5α-reductase = molecular target: T3, microsomal 5α-reductase (Rattus norvegicus, UniProt P24008); assay: Enzymatic assay of microsomal 5α-reductase (testosterone to 5α-DHT); format: biochemical
T3 construct: from the livers of adult Sprague-Dawley female rats; from tissue; host or cells: liver microsomes of adult female Sprague-Dawley rats
T3 sequence (P24008 1-259): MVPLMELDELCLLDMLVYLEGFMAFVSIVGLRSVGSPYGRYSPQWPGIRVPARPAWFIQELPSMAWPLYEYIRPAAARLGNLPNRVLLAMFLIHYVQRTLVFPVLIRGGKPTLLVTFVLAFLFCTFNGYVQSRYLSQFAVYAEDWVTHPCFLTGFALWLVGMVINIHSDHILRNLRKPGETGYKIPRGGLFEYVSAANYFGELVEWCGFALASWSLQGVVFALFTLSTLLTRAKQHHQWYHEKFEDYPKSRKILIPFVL
Procedure: as §1

PC-3 = assay: 5α-DHT formation from [3H]testosterone by PC-3 cells; format: cell-based, human; details: Homo sapiens, PC-3, read-out: 5α-DHT formed (% of control)
[14] = ethanol solution
[15] = based on the increase in the weight

T1 sequence (P0DUB6 16-511): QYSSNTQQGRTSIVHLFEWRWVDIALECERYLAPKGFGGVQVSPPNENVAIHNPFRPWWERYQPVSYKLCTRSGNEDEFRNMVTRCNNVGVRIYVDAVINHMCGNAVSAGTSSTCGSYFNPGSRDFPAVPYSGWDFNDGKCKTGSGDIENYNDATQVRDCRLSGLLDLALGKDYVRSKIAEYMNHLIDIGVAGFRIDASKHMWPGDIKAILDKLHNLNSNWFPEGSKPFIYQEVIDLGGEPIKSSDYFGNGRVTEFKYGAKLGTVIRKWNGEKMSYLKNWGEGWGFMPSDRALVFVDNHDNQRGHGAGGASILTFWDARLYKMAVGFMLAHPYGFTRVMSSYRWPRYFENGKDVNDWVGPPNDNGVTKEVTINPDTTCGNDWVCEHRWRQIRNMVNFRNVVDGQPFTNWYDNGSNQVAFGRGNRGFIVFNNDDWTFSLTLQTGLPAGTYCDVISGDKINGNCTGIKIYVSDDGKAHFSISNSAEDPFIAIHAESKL

## O=C(O[C@@H]1Cc2c(O)cc(O)cc2O[C@@H]1c1cc(O)c(O)c(O)c1)c1cc(O)c(O)c(O)c1 [EGCG, (-)Epigallocatechin-3-gallate]
[1]
  IC50: 50 to 500 µM
[2]; FIG. 33, 1 mg/day, two weeks, controls about 450
  tumor size: smaller than 100 mm^3
[2]; FIG. 34, 1400 mm^3 tumor, after 2 weeks of EGCG
  tumor size: about 850 mm^3
[2]; FIG. 34, 1400 mm^3 tumor, after another 2 weeks of EGCG
  tumor size: about 500 mm^3
[2]; FIG. 34, during the 2 week injection
  tumor size: about 100 mm^3
[2]; FIG. 34, within 2 weeks after injection stopped
  tumor size: about 800 mm^3
[2]; FIG. 34, within 3 weeks after injection stopped
  tumor size: over 1200 mm^3
[3]; 10 mg per day
  body weight reduction: about 10%
  coagulating glands weight reduction: about 30%
  dorsolateral prostate weight reduction: about 30%
  effect on weights of testis and kidney: not significant
  preputial glands weight loss: 20 to 25%
  seminal vesicles weight loss: 20 to 25%
  ventral prostate weight reduction: about 30%
[3]; 10 mg per day, discussion
  body weight loss: less than 10%
  prostate weight loss: more than 30%
[3]; 15 mg per day
  body weight reduction: about 25%
  effect on weights of testis and kidney: ≤ 10%
[3]; 15 mg per day, prostates, coagulating glands, seminal vesicles, preputial glands
  weight reduction for all of these organs: ≥ 60%
[3]; application stopped, FIG. 38
  reversibility of body weight effect: reversible
[3]; male rats, ventral and dorsolateral prostates, coagulating glands, seminal vesicles, preputial glands
  organ weights: without affecting the weight of testis or kidney
[4]; castrated + 5α-DHT
  prostate weight reduction: no reduction
[4]; castrated + testosterone
  prostate weight reduction: about 23%
[4]; normal and castrated rats with testosterone or 5α-DHT, 7 days
  body weight reduction: 8±1%
[4]; normal rats
  prostate weight reduction: about 30%
[4]; rat, in vivo
  pathology examination of organs and blood: did not reveal any abnormal growth or pathogenic effects
[5]
  IC50: 0.04 µM
[6]; 15 mg/day, 7 days, control 238.2 ± 10.6
  final body weight: 191.8 ± 12.0 g
[6]; 15 mg/day, control 78.0 ± 5.9
  Coagulating gland: 45.5 ± 11.7 mg
[6]; 15 mg/day, control 126.8 ± 24.8
  Preputial gland: 76.1 ± 33.1 mg
[6]; 15 mg/day, control 201.9 ± 36.2
  Ventral prostate: 142.2 ± 10.7 mg
[6]; 15 mg/day, control 234.3 ± 11.7
  Seminal Vesicle: 164.9 ± 30.4 mg
[6]; based on the full weight
  Coagulating gland, % of Control, Final: 58.3 % of Control
  Final body weight, % of Control, Final: 80.5 % of Control
  Preputial gland, % of Control, Final: 60.0 % of Control
  Seminal Vesicle, % of Control, Final: 70.4 % of Control
  Ventral prostate, % of Control, Final: 70.4 % of Control
[6]; [15]
  Coagulating gland, % of Control, Increase: 39.8 % of Control
  Seminal Vesicle, % of Control, Increase: 52.3 % of Control
  Ventral prostate, % of Control, Increase: 62.0 % of Control
[7]
  IC50: 50 to 500 µM
[8]
  tumor reduction: 50%

## CCCCC/C=C\C/C=C\C/C=C\CCCCC(=O)O [γ-Linolenic acid, γ-linolenic acid]
LNCaP
  activity at 50 µM: 27%
  activity at 100 µM: 9 ± 4%
[9]
  inhibition of NADPH-dependent [^3 H]4-MA binding: to the same degree as in experiments with rat liver microsomes
[10]; 20 mg twice a day, 6 days
  L/R sebum ratio at end of treatment: 0.22
[10]; 16 days after stop
  L/R sebum ratio recovered after treatment stopped: 1.20±0.14
[11]; after injections, control 12.9±2.2
  left flank organ area: 9.9±2.4
[11]; after injections, control 14.6±1.5
  right flank organ area: 9.8±2.5 mm^2
[11]; control 0.022±0.004 g
  adrenal weight: 0.021 ± 0.004 g
[11]; control 0.156±0.026 g
  seminal vesicles and prostate weight: 0.106 ± 0.022 g
[11]; control 0.157±0.027
  spleen weight: 0.1867±0.048
[11]; control 1.060±0.086 g
  kidney weight: 1.121 ± 0.073 g
[12]
  visible change in cell morphology: did not produce any visible
[13]
  effect on UDP-glucuronic acid:5α-DHT glucuronosyl transferase: did not affect
Microsomal 5α-reductase
  competition with testosterone or NADPH: did not appear to compete with testosterone or NADPH
Microsomal 5α-reductase; 5 μM γ-LA, 2.0 without, read-out: apparent Km value for NADPH
  Km: 3.1 µM
Microsomal 5α-reductase; 5 μM γ-LA, 7.5 without
  Vmax: 2.8 pmol 5α-DHT formed/mg protein/15 min
Microsomal 5α-reductase; read-out: apparent Km value for testosterone, 5 μM γ-LA, 2.4 without
  Km: 4.5 µM
PC-3; 1 μM
  activity at 1 µM: 98 ± 6%
PC-3; 5 μM
  activity at 5 µM: 50 ± 3%
PC-3; 20 μM
  activity at 20 µM: 2 ± 2%
[14]; 5 weeks of storage
  oxidation products by TLC: two additional more polar products
[14]; refrigerated for 3 weeks
  changes of the compound by TLC: no detectable changes
